Some results are limits rather than exact numbers.

One may read the IC50 as the concentration that inhibits the measured activity by half.

Test [1] concerns the target Tb-labeled inactive PDGFRβ (Homo sapiens (Human), UniProt P09619). Briefly: PDGFRβ LanthaScreen Assay. Type of test: binding. To be noted: read-out: PDGFR Lantha IC50. (TR-FRET usually uses a lanthanide donor and a delayed reading to cut background.)
For test [2], the target named is PDGFRβ (Rattus norvegicus (Rat), UniProt Q05030). Briefly: PDGFRβ Cellular Assay (PDGFRb P-Y751 HTRF in A10 cells stimulated with PDGF-BB). As to conditions: read-out: PDGFR Cellular IC50. The format is cell-based. In outline: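 Rat A10 cells, plated overnight, were treated with compound for 3 hours, then stimulated with PDGF-BB (working stock 100 ng/mL in 10% FBS medium). After lysis, PDGFRβ P-Y751 was detected by HTRF.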
Sequence of PDGFRβ (Q05030 32-1097): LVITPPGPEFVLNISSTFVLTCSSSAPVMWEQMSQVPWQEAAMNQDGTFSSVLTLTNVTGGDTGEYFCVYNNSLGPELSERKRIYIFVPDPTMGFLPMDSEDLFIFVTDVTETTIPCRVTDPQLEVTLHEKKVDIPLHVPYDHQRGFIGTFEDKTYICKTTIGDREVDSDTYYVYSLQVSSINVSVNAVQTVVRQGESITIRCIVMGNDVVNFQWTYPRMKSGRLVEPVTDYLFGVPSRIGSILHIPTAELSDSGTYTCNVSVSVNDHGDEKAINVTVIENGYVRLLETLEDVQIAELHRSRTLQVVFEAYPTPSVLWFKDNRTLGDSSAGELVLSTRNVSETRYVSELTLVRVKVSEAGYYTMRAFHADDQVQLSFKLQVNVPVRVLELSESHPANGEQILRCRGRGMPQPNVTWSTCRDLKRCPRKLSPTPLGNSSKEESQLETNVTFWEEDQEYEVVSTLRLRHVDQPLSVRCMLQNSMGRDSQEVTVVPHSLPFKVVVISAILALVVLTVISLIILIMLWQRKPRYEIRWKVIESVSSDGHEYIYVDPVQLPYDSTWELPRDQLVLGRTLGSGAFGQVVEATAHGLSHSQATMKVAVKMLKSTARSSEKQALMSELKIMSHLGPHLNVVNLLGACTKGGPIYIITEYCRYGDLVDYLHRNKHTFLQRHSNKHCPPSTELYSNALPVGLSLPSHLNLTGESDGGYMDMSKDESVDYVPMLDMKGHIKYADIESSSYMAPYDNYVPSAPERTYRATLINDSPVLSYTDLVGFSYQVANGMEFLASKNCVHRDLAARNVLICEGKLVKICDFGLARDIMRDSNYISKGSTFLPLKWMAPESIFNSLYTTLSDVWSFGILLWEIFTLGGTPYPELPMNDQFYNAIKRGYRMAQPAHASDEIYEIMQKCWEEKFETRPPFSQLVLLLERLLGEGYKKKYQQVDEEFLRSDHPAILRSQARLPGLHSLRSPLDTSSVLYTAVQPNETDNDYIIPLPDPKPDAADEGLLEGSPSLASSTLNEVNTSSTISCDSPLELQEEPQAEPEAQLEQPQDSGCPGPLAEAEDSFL

Test [3] concerns the target VEGFR2, unphosphorylated (Homo sapiens (Human), UniProt P35968). Put plainly: VEGFR ADP GLO Assay. The format is biochemical. (In general: ADP-Glo first removes unused ATP, then detects ADP through luciferase.)

Sequence of Tb-labeled inactive PDGFRβ (P09619 33-1106): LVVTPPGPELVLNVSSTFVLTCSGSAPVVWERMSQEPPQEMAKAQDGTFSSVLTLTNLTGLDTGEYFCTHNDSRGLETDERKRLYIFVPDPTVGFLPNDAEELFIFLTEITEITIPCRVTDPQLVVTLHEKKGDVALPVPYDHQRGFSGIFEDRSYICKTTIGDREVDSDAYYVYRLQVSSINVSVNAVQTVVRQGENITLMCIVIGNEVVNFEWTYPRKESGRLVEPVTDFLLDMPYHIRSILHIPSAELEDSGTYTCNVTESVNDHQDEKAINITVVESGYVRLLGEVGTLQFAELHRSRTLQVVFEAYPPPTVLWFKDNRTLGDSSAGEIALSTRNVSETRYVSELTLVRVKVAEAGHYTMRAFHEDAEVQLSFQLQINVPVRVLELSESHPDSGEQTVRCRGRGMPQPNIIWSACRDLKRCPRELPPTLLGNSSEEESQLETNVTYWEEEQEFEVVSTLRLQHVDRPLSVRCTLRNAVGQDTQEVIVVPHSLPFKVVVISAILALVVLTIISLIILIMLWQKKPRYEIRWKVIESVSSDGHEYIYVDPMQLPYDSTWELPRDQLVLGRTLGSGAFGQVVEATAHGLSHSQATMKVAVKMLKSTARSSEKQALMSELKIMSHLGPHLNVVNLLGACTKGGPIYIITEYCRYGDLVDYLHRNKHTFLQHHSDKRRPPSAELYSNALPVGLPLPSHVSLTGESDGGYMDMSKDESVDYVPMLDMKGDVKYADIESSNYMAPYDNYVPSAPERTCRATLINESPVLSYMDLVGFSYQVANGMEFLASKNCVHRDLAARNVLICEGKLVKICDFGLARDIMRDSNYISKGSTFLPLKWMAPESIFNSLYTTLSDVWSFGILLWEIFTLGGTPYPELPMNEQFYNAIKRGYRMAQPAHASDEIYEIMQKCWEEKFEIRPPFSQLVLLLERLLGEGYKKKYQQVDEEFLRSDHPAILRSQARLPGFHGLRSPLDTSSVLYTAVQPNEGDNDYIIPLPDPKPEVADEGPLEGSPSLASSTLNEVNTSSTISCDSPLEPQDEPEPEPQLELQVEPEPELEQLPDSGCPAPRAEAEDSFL
Sequence of VEGFR2, unphosphorylated (P35968 20-1356): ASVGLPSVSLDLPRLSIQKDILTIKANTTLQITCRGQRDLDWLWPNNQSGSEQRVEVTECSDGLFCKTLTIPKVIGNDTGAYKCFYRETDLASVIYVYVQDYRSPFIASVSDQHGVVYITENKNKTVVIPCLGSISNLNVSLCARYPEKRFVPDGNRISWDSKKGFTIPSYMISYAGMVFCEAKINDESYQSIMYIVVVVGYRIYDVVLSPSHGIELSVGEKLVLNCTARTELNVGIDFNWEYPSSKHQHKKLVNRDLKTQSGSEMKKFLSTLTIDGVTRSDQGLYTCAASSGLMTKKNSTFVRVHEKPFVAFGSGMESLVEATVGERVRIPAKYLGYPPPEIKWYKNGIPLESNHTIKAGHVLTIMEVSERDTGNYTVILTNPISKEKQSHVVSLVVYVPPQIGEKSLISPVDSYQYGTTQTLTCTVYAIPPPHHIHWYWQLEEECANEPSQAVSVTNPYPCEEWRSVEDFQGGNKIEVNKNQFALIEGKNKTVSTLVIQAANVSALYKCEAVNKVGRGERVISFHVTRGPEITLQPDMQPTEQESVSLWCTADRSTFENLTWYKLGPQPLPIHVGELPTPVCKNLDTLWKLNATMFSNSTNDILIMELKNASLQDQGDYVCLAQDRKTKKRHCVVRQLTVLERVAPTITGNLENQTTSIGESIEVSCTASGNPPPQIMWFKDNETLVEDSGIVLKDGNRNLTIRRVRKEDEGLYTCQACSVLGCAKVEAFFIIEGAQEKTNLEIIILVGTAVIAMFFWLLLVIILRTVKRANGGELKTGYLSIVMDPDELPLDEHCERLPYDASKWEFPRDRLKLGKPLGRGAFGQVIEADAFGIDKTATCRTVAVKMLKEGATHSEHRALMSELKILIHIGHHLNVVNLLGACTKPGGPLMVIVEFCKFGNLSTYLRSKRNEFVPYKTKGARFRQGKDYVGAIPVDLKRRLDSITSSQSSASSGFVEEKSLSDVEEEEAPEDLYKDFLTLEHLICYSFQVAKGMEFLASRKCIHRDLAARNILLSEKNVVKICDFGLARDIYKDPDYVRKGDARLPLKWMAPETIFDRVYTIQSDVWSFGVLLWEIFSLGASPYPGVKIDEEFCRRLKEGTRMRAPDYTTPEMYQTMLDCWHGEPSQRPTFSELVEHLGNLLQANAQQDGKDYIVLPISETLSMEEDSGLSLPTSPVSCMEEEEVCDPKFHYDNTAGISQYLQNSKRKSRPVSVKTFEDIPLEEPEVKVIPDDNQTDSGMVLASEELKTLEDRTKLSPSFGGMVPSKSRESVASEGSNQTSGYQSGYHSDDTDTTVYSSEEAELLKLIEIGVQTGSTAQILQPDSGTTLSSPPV

Regarding `Cc1ncc(NC(=O)OCC(C)N2CCCC2)cc1NC(=O)c1cnn2cc(-c3cnn(C)c3)sc12` (stereo not drawn) [Example 248, 2-(pyrrolidin-1-yl)propyl (6-methyl-5-(2-(1-methyl-1H-pyrazol-4-yl)pyrazolo[5,1-b]thiazole-7-carboxamido)pyridin-3-yl)carbamate], the half-maximal inhibitory concentration (IC50) in test [1] was 10.2 nM; in test [2], 31.3 nM; in test [3], above 7500 nM.
As for `Cc1ncc(NC(=O)OCC(C)(C)N2CCCC2)cc1NC(=O)c1cnn2cc(-c3cnn(C)c3)sc12` [Example 249, 2-methyl-2-(pyrrolidin-1-yl)propyl (6-methyl-5-(2-(1-methyl-1H-pyrazol-4-yl)pyrazolo[5,1-b]thiazole-7-carboxamido)pyridin-3-yl)carbamate], the values for the IC50 in test [1], in test [2] and in test [3] were 6.5 nM, 59.8 nM and above 7500 nM, respectively.
With `Cc1ncc(NC(=O)OCCN2CC3CCC2C3)cc1NC(=O)c1cnn2cc(-c3cnn(C)c3)sc12` (stereo not drawn) [Example 250, 2-(2-azabicyclo[2.2.1]heptan-2-yl)ethyl (6-methyl-5-(2-(1-methyl-1H-pyrazol-4-yl)pyrazolo[5,1-b]thiazole-7-carboxamido)pyridin-3-yl)carbamate], the figures for the half-inhibitory concentration (IC50) in test [1], in test [2] and in test [3] were 75.2 nM, 299 nM and above 7500 nM, respectively.
Consider `Cc1ncc(NC(=O)OCCN(C)C2CCCCC2)cc1NC(=O)c1cnn2cc(-c3cnn(C)c3)sc12` [Example 251, 2-(cyclohexyl(methyl)amino)ethyl (6-methyl-5-(2-(1-methyl-1H-pyrazol-4-yl)pyrazolo[5,1-b]thiazole-7-carboxamido)pyridin-3-yl)carbamate], for which the IC50 in test [1] is 33.6 nM; in test [2], 28.4 nM; in test [3] it was above 7500 nM.
For `Cc1ncc(NC(=O)OC2CN(C(C)(C)C)C2)cc1NC(=O)c1cnn2cc(-c3cnn(C)c3)sc12` [Example 252, 1-(tert-butyl)azetidin-3-yl (6-methyl-5-(2-(1-methyl-1H-pyrazol-4-yl)pyrazolo[5,1-b]thiazole-7-carboxamido)pyridin-3-yl)carbamate], the concentration for half-maximal inhibition (IC50) in test [1] was 53.2 nM; in test [2], 79.7 nM; in test [3], above 7500 nM.
With `COc1ncccc1-c1cn2ncc(C(=O)Nc3cc(NC(=O)OC[C@@H]4CCCN4C)cnc3C)c2s1` [Example 253, (S)-(1-methylpyrrolidin-2-yl)methyl (5-(2-(2-methoxypyridin-3-yl)pyrazolo[5,1-b]thiazole-7-carboxamido)-6-methylpyridin-3-yl)carbamate], the IC50 in test [1] was 1.8 nM; in test [2], 4.4 nM; in test [3], above 7500 nM.

The record behind these values is patent publication US20240109917A1 (ACTELION PHARMACEUTICALS LTD, priority 2020, published 2024).
